# Measurements reported in US20240350536A1, “Application of Bi-Phenols in Anti-ototoxicity and Hearing Protection” (Northwestern University, priority 2017, published 2024).
# Entries after “also recorded” stand apart in the source; their conditions may differ. Where two headings read alike, the source gives them in different places.
# Key:
# [1] = tested on: prostate cancer cells (C4-2B); experiment: Survival of prostate cancer cells with cisplatin and honokiol; format: cell-based
# Experimental: (§1) FIG. 10. […] C: cisplatin; H: honokiol. […] Each treatment was repeated in triplets. The data were normalized by the number of untreated control (C0H0).
# (§2) Because the role of SIRT3 may be different in different cancers, we selected three (3) different cancer cells for testing: prostate cancer cells, cervical cancer cells, and colon cancer cells. (See FIG. 10). Cisplatin was administered to the cancer cell lines with honokiol.
# [2] = tested on: outer hair cell (OHC) function; format: in vivo, mice
# Experimental: FIG. 12A-12E. HNK protection against cisplatin-induced changes of DPOAE amplitude. […] The DPOAE shift, normalized to Day 0, of all the groups are plotted in (FIG. 12B to FIG. 12E). […] The results of the 2 animals in Cis 15 mg/kg group on Day 14 were both plotted in (FIG. 12B) as the dashed lines and open circles. […].
# Distortion product oto-acoustic emissions (DPOAEs), which are an indication of outer hair cell (OHC) function, were measured in a separate series of experiments to estimate OHC protection by honokiol (HNK). (See FIG. 12A-12E). […] (See FIGS. 12D and 12E). After pre-treatment with HNK at a dosage of 10 mg/kg, the DPOAE shift was observed only at frequencies of 27 kHz and higher with a much smaller amplitude. (See FIG. 12D).
# outer hair cells (OHC) = experiment: Immunofluorescent histochemistry and confocal imaging of cochlear whole mount; format: in vivo, mice
# Excerpt: FIG. 13. Confocal images of the immunostaining (merged) of cochleae treated with Cis 15 (A) and Cis 15+HNK 20 (B) mg/kg, under 20× objectives.
# FIG. 14. High-resolution confocal images (60× […]) of cochleae treated with Cis 15 (Left) and Cis 15+HNK 20 (Right), taken at the locations marked by white squares in FIGS. 13A and B, respectively. The white arrows indicate the nuclei of the remaining OHCs and the hollow arrows indicate missing OHCs. Note the panels for hair bundles (phalloidin staining) might be off focus and are only for indicating the correct position of the bodies and nuclei of the OHCs.
# Immunofluorescent histochemistry (IFHC) of a cochlear whole mount was performed after the physiological studies described above using prestin antibody (for outer hair cells (OHC)), phalloidin (for hair bundle) and 4′,6-diamidino-2-phenylindole (DAPI) (for nuclei). […] (See FIG. 14A). HC loss can be indicated by the scarcity of remaining nuclei (white arrows).
# cervical cancer cells = experiment: Survival of cervical cancer cells with cisplatin and honokiol; format: cell-based
# Experimental: as §1, §2
# colon cancer cells = experiment: Survival of colon cancer cells with cisplatin and honokiol; format: cell-based
# Experimental: as §1, §2
# [3] = Weight loss and animal survival in cisplatin-treated mice; format: in vivo
# Excerpt: (See FIG. 15). […] (See FIG. 15). […] (See FIG. 15A). […] (See FIG. 15B).
# HEI-OC1 cells = tested on: HEI-OC1 cells
# Excerpt: FIG. 9. […] The data were normalized to the number of cells in the negative control (C0H0).
# (§3) (See FIG. 9). […] (See FIG. 9). […] (See FIG. 9).
# [4] = literature statement, cited from earlier work
# [5] = tested on: SIRT3, Caspase 3, PARP in HEI-OC1 cells; experiment: Western blot of SIRT3 and apoptosis-related proteins in HEI-OC1 cells; format: cell-based, mouse
# Experimental: FIG. 9. […] (A) C: cisplatin; H: HNK. […] Cisplatin and honokiol were added simultaneously.
# as §3
# mice = experiment: Auditory Brainstem Response (ABR) threshold shift in cisplatin-treated mice; format: in vivo
# Excerpt: Average=256. The error bars of all data points are standard deviations.
# [6] = honokiol co-administered with cisplatin
# [7] = cisplatin with honokiol pre-treatment
smiles,measurement,setting,value
"N.N.[Cl][Pt][Cl] [cisplatin, reference compound]",loss of prostate cancer cells,[1]; cisplatin 50 μM or 100 μM,massive loss
same,DPOAE amplitude at high frequencies,"[2]; mouse, in vivo",reduced
same,frequencies of apparent DPOAE amplitude drop,"[2]; mouse, in vivo",over 16 kHz
same,OHC organization and HC loss,"outer hair cells (OHC); Cis 15 mg/kg, basal 1/3 of the cochlea (estimated over 22 kHz)",Significant disruption of OHC organization and HC loss
same,reduction in cervical cancer cells,cervical cancer cells; cisplatin 50 μM or 100 μM,mild reduction
same,loss of colon cancer cells,colon cancer cells; cisplatin 100 μM,massive loss
same,survival rate,"[3]; cisplatin 20 mg/kg, day 8",zero
"C=CCc1ccc(O)c(-c2ccc(O)c(CC=C)c2)c1 [honokiol, 2-(4-hydroxy-3-prop-2-enyl-phenyl)-4-prop-2-enyl-phenol]",prostate cancer cell (C4-2B) death from cisplatin treatment,"[1]; HNK up to 25 μM, 50 μM cisplatin, preliminary data",did not prevent
same,protection of prostate cancer cells from the toxicity of cisplatin,[1]; [6],not observed to protect
same,DPOAE amplitude changes,"[2]; mice pre-treated with HNK, cisplatin 15 mg/kg",less pronounced
same,OHC structure,"outer hair cells (OHC); Cis 15 + HNK 20 mg/kg, up to the 40 kHz region, only sporadic loss of HCs",nearly intact OHC structure
same,effect with cisplatin on cervical cancer cells,"cervical cancer cells; honokiol 25 μM, cisplatin 50 μM (C50H25)",synergistic effect
same,protection of cervical cancer cells from the toxicity of cisplatin,cervical cancer cells; [6],not observed to protect
same,cell toxicity,HEI-OC1 cells,no cell toxicity
same,HEI-OC1 apoptosis induced by cisplatin,"HEI-OC1 cells; 10 μM HNK, 50 μM cisplatin, 24 hours, preliminary study",completely prevent
same,protection against high dose cisplatin ototoxicity,"HEI-OC1 cells; HNK 10 μM, cisplatin 50 μM",~100%
same,protection of HEI-OC1 cells against cisplatin-induced cell loss,"HEI-OC1 cells; honokiol 5 μM or 10 μM, cisplatin 50 μM or 100 μM",protect
same,passage of the blood-brain barrier,[4],capable of passing the blood-brain barrier
same,passage of the blood-brain barrier,[4]; listed as HNK,can also cross the blood brain barrier; also recorded: permeable; also recorded: can pass through the blood-brain barrier
same,SIRT3 expression level,"[5]; HEI-OC1, HNK with cisplatin, 24 hours after cisplatin treatment, listed as HNK",increased; also recorded: elevated
same,DNA damage,"[5]; HEI-OC1, cisplatin in the presence of HNK, pilot studies",diminished
same,cleavage of poly ADP ribose polymerase (PARP),"[5]; HEI-OC1, honokiol",decrease
same,expression of Caspase 3,"[5]; HEI-OC1, honokiol",decrease
same,expression of SIRT3,"[5]; HEI-OC1, increasing concentrations of honokiol",increase
same,expression of early apoptosis mark caspase-3,"[5]; HEI-OC1 co-treated with HNK and cisplatin versus cisplatin alone, pilot studies",higher in some cells
same,effect with cisplatin on colon cancer cells,"colon cancer cells; honokiol 10 μM or 25 μM, cisplatin 50 μM",synergistic effect
same,protection of colon cancer cells from the toxicity of cisplatin,colon cancer cells; [6],not observed to protect
same,maximum weight loss,[3]; cisplatin 15 mg/kg with honokiol,about 15%
same,animals lost,[3]; cisplatin 20 mg/kg with honokiol,20%
same,survival rate / animal loss,[3]; [7],significantly reduced; also recorded: improved significantly
same,weight loss,[3]; [7],significantly reduced; also recorded: largely improved
same,TS in tonal ABR at the highest frequency (32 kHz),mice; HNK 10 mg/kg and cisplatin 15 mg/kg,significant TS
same,TS at other frequencies and dose combinations,"mice; HNK 10-20 mg/kg, cisplatin 15-20 mg/kg",No further significant TS
same,ABR TS induced by cisplatin,mice; mice pre-treated with HNK,decreased significantly
